A short description of this data set: Solubility (dissolved, centrifuged, HPLC peak integrated relative to a tyrosine standard). It is filed as physicochemical. An excerpt: Pure three-mer scaffolds and five-mer scaffolds with extended rod-like structures in useful amounts have been synthesized. Three units of building block 1:pro4(2S4S) (Sequence 1) were assembled to form the molecular rod 19 using sequential solid phase synthesis on a 46 μmole scale (Scheme 4). The synthesis took place on an AM resin with a Rink Amide linker available from Novabiochem. […] After coupling three monomers, an Fmoc-Tyr(t-Bu)-OAt residue was coupled to increase the hydrophobicity of the final scaffold so that it would bind to a C18 column. After removal of the tyrosine Fmoc group, the amine terminus rapidly attacked the adjacent methyl ester to form a diketopiperazine […] (indicated in the sequence as cyclo-(Tyr)). The flexible oligomer 17 was cleaved from the resin and its mass was confirmed by reverse phase liquid chromatography with mass spectrometry (RP-LCMS). The carboxybenzyl (Cbz) groups were then removed by hydrogenolysis to obtain 18. The flexible oligomer 18 was converted into the rigidified scaffold 19 through the parallel formation of two diketopiperazine rings by exposure to 20% piperidine/DMF over 48 hours at 4° C.[25] […] Solubility was measured by dissolving the compound in 0.1% TFA, centrifuging it, injecting the solution into an HPLC and integrating the resulting peak relative to a tyrosine standard. […]

Converted amounts (≈) assume the structure as drawn. Like-named read-outs stand apart in the source and are kept apart here. Bounds are passed on as bounds.

As to `NC(=O)[C@@H]1C[C@@]2(CN1)NC(=O)[C@@H]1C[C@@]3(CN1C2=O)NC(=O)[C@@H]1C[C@@]2(CN1C3=O)NC(=O)[C@H](Cc1ccc(O)cc1)NC2=O` [scaffold 19], the solubility (water, read-out: soluble in water) was above 5000 µg/mL.

For `COC(=O)[C@]1(N)C[C@H]2C(=O)N[C@]3(C[C@H]4C(=O)N[C@]5(C[C@H]6C(=O)N[C@]7(C[C@H]8C(=O)N[C@@]9(CN[C@H](C(=O)N[C@@H](Cc%10ccc(O)cc%10)C(N)=O)C9)C(=O)N8C7)C(=O)N6C5)C(=O)N4C3)C(=O)N2C1` [scaffold 20], the solubility (10% D2O/H2O, unpurified material, read-out: soluble in 10% D2O/H2O) amounted to 5000 µg/mL (≈ 5.54 mM).

(Values after patent US20040077879A1, “Bis (amino acid) molecular scaffolds” (priority 2002, published 2004).)
